In patent US20130165475A1, “DEUTERIUM-ENRICHED HETEROCYCLIC COMPOUNDS AS KINASE INHIBITORS” (ASCEPION PHARMACEUTICALS, INC., priority 2010, published 2013):

Key:
[1] = Oral bioavailability study, Group 2 (rats); type: in vivo, male SD rat
Method: Oral pharmacokinetic studies on rats were performed on Example 2, this compound was dissolved in PEG-400 (2:1 mixture of PEG400 and 0.01N HCL (v/v)) and administered orally to male SD rat at a dose of 50 mg/kg. Rat blood was obtained from tail vein at 0.25, 0.5, 1, 2, 3, 4, 6, 8, 12, and 24 hours after administration. The blood concentration of Example 2 was determined using appropriate internal standards and reverse phase HPLC with UV detection. Control blood samples were also run to identify compound-specific peaks. The oral bioavailability was determined by comparing the dose corrected areas under plasma-concentration time curve (AUC) to infinity for Example 2, given orally and intravenously in rats.

[2] = test system: MDA-MB-231 human breast cancer cells; experiment: In vivo anti-tumor efficacy, MDA-MB-231 xenograft; details: MDA-MB-231 s.c. in nu/nu Balb/c athymic mice, 50 mg/kg once per day oral gavage
Method: (§1) Female (nu/nu) Balb/c athymic mice at 4-6 weeks of age were injected subcutaneously (s.c.) with MDA-MB-231 human breast cancer cells, A549 human non-small cell lung cancer cells, BEL7401 human liver cancer cells, HT-29 human colon cancer cells, or MKN-45 human gastric cancer cells (ATCC, 5×10^6 cells suspended in 100 μl DMEM medium). Treatment was initiated after the tumor mass grown from subcutaneous implanted tumor cells reaches a median volume of 200-400 mm^3. Mice were randomized into groups with three in each group such that the median tumor volume is nearly equal among all groups. […] Tumor volumes were assessed at least twice weekly by caliper measurement from the start of treatment. Tumor volume was calculated using the formula ½×L×W^2 (L: length of tumor's long axis, W: length of tumor's short axis). […] The efficacy of compounds in reducing tumor growth was assessed by the index Tumor Growth Inhibition (TGI). TGI for a given treatment period was calculated using the group mean tumor volumes according to the formula: TGI=100×(Vvehicle—group−VTreatment—group)÷VVehicle—group wherein VVehicle—group representing the mean tumor volume for the group treated with vehicle and VTreatment—group representing the mean tumor volume of the group treated with a compound.

[3] = test system: MKN-45 human gastric cancer cells; experiment: In vivo anti-tumor efficacy, MKN-45 xenograft; details: MKN-45 s.c. in nu/nu Balb/c athymic mice, 50 mg/kg once per day oral gavage
Method: as §1

[4] = test system: A549 human non-small cell lung cancer cells; experiment: In vivo anti-tumor efficacy, A549 xenograft; details: A549 s.c. in nu/nu Balb/c athymic mice, 50 mg/kg once per day oral gavage
Method: as §1

[5] = test system: HT-29 human colon cancer cells; experiment: In vivo anti-tumor efficacy, HT-29 xenograft; details: HT-29 s.c. in nu/nu Balb/c athymic mice, 50 mg/kg once per day oral gavage
Method: as §1

- bioavailability ([1]; plasma, male SD rat, 50 mg/kg oral, AUC to infinity oral vs intravenous): > 67%
- amount detected in blood after oral dosing ([1]; rat study, 0.25 hours after 50 mg/kg oral dosing): substantial amounts
- half-life ([1]; whole blood, male SD rat, 50 mg/kg oral): 2 to 3 h
SMILES: Cl.[2H]C([2H])(c1ccnc(N)c1)n1ccc2c(NC(=O)Nc3cc(Cl)ccc3OC)cccc21 [Example 2, 1-[1-[(2-amino-4-pyridyl)-dideuteriomethyl]indol-4-yl]-3-(5-chloro-2-methoxyphenyl)urea hydrochloride]
- Tumor Growth Inhibition (TGI) [2]: A (the TGI is greater or equal to 50%)
- Tumor Growth Inhibition (TGI) [3]: A (the TGI is greater or equal to 50%)
- Tumor Growth Inhibition (TGI) [4]: A (the TGI is greater or equal to 50%)
- Tumor Growth Inhibition (TGI) [5]: A (the TGI is greater or equal to 50%)
